Source: paper PMC5218480 (PLoS ONE, 2017)

Tested on: MV-4-11 cells
Assay: Gene expression microarray analysis (Affymetrix PrimeView) and GSEA
Assay type: cell-based, human
Parameters: RFU PODN (11730768_x_at) / Fold change /veh PODN (11730768_x_at) / RFU LINC00158 (11744669_a_at) / Fold change /veh LINC00158 (11744669_a_at) / RFU DUSP10 (11751237_a_at) / Fold change /veh DUSP10 (11751237_a_at) / RFU ID3 (11757404_x_at) / Fold change /veh ID3 (11757404_x_at) / RFU PLEKHG5 (11737974_s_at) / Fold change /veh PLEKHG5 (11737974_s_at) / RFU LRRC4B (11730491_at) / Fold change /veh LRRC4B (11730491_at) / RFU GIMAP4 (11747438_a_at) / Fold change /veh GIMAP4 (11747438_a_at) / RFU KRT8 (11758183_x_at) / Fold change /veh KRT8 (11758183_x_at) / RFU CNN1 (11734310_a_at) / Fold change /veh CNN1 (11734310_a_at) / RFU VPS37D (11726825_at) / Fold change /veh VPS37D (11726825_at) / RFU C10orf10 (11716522_x_at) / Fold change /veh C10orf10 (11716522_x_at) / RFU KIR2DL2 /// KIR2DL4 /// KIR2DL5A /// KIR2DL5B /// KIR2DS1 /// KIR2DS2 /// KIR2DS3 /// KIR2DS4 /// KIR3DL3 /// KIR3DL3 /// KIR3DS1 (11738374_at) / Fold change /veh KIR2DL2 /// KIR2DL4 /// KIR2DL5A /// KIR2DL5B /// KIR2DS1 /// KIR2DS2 /// KIR2DS3 /// KIR2DS4 /// KIR3DL3 /// KIR3DL3 /// KIR3DS1 (11738374_at) / RFU C1QL1 (11718748_at) / Fold change /veh C1QL1 (11718748_at) / RFU TMPRSS4 (11747572_a_at) / Fold change /veh TMPRSS4 (11747572_a_at) / RFU HAMP (11756126_x_at) / Fold change /veh HAMP (11756126_x_at) / RFU RNFT2 (11725882_a_at) / Fold change /veh RNFT2 (11725882_a_at) / RFU NR4A2 (11747474_a_at) / Fold change /veh NR4A2 (11747474_a_at) / RFU ABCC12 (11746883_a_at) / Fold change /veh ABCC12 (11746883_a_at) / RFU TMEM136 (11760407_x_at) / Fold change /veh TMEM136 (11760407_x_at) / RFU CLDN22 /// WWC2 (11732394_at) / Fold change /veh CLDN22 /// WWC2 (11732394_at) / RFU HLA-DPB1 (11760878_x_at) / Fold change /veh HLA-DPB1 (11760878_x_at) / RFU SPINT1 (11716480_a_at) / Fold change /veh SPINT1 (11716480_a_at) / RFU GAP43 (11754022_s_at) / Fold change /veh GAP43 (11754022_s_at) / RFU A4GNT (11735810_at) / Fold change /veh A4GNT (11735810_at) / RFU PRB3 (11715151_x_at) / Fold change /veh PRB3 (11715151_x_at) / RFU TUBB4B (11761932_at) / Fold change /veh TUBB4B (11761932_at) / RFU CAPN14 (11732068_a_at) / Fold change /veh CAPN14 (11732068_a_at) / RFU TMCC2 (11721928_a_at) / Fold change /veh TMCC2 (11721928_a_at) / RFU IRGQ (11745062_a_at) / Fold change /veh IRGQ (11745062_a_at) / RFU FAM174B (11720279_a_at) / Fold change /veh FAM174B (11720279_a_at) / RFU TMPRSS4 (11748680_a_at) / Fold change /veh TMPRSS4 (11748680_a_at) / RFU FAM212B (11763350_a_at) / Fold change /veh FAM212B (11763350_a_at) / RFU PLEKHG5 (11743358_a_at) / Fold change /veh PLEKHG5 (11743358_a_at) / RFU ZSCAN30 (11745921_a_at) / Fold change /veh ZSCAN30 (11745921_a_at) / RFU CMKLR1 (11741424_a_at) / Fold change /veh CMKLR1 (11741424_a_at) / RFU LOC101060620 /// MAPK8IP1 (11723275_at) / Fold change /veh LOC101060620 /// MAPK8IP1 (11723275_at) / RFU SPTSSB (11747773_x_at) / Fold change /veh SPTSSB (11747773_x_at) / RFU PRSS12 (11739890_at) / Fold change /veh PRSS12 (11739890_at) / RFU BIN1 (11741810_x_at) / Fold change /veh BIN1 (11741810_x_at) / RFU WNT11 (11732464_a_at) / Fold change /veh WNT11 (11732464_a_at) / RFU C10orf10 (11716521_a_at) / Fold change /veh C10orf10 (11716521_a_at) / RFU C5orf56 (11738089_at) / Fold change /veh C5orf56 (11738089_at) / RFU CYB561 (11721691_x_at) / Fold change /veh CYB561 (11721691_x_at) / RFU ANKRD19P (11752326_a_at) / Fold change /veh ANKRD19P (11752326_a_at) / RFU OR2T12 /// OR2T33 /// OR2T8 (11738714_s_at) / Fold change /veh OR2T12 /// OR2T33 /// OR2T8 (11738714_s_at) / RFU VCAN (11748164_a_at) / Fold change /veh VCAN (11748164_a_at) / RFU JSRP1 (11732532_at) / Fold change /veh JSRP1 (11732532_at) / RFU KRTAP10-11 (11738290_x_at) / Fold change /veh KRTAP10-11 (11738290_x_at) / RFU MYO3A (11730013_a_at) / Fold change /veh MYO3A (11730013_a_at) / RFU EBF3 (11725865_a_at) / Fold change /veh EBF3 (11725865_a_at) / RFU CAMK2N1 (11719241_x_at) / Fold change /veh CAMK2N1 (11719241_x_at) / RFU C5orf56 (11738088_a_at) / Fold change /veh C5orf56 (11738088_a_at) / RFU OLFML3 (11715873_a_at) / Fold change /veh OLFML3 (11715873_a_at) / RFU LOC100653217 /// NTM (11731650_a_at) / Fold change /veh LOC100653217 /// NTM (11731650_a_at) / RFU MAPK11 (11762145_a_at) / Fold change /veh MAPK11 (11762145_a_at) / RFU FIZ1 (11724087_x_at) / Fold change /veh FIZ1 (11724087_x_at) / RFU OASL (11726364_x_at) / Fold change /veh OASL (11726364_x_at) / RFU SOX15 (11748057_x_at) / Fold change /veh SOX15 (11748057_x_at) / RFU CD79A (11719716_a_at) / Fold change /veh CD79A (11719716_a_at) / RFU HIST1H1D (11736915_at) / Fold change /veh HIST1H1D (11736915_at) / RFU CASKIN2 (11723855_a_at) / Fold change /veh CASKIN2 (11723855_a_at) / RFU LOC730098 (11760151_x_at) / Fold change /veh LOC730098 (11760151_x_at) / RFU OR4N2 (11742367_at) / Fold change /veh OR4N2 (11742367_at) / RFU PRRT2 (11749266_a_at) / Fold change /veh PRRT2 (11749266_a_at) / RFU SNX32 (11753110_a_at) / Fold change /veh SNX32 (11753110_a_at) / RFU CDHR5 (11726645_a_at) / Fold change /veh CDHR5 (11726645_a_at) / RFU RCAN1 (11760418_a_at) / Fold change /veh RCAN1 (11760418_a_at) / RFU FAM167A (11723789_a_at) / Fold change /veh FAM167A (11723789_a_at) / RFU FAM26E (11764081_at) / Fold change /veh FAM26E (11764081_at) / RFU ISYNA1 (11749810_s_at) / Fold change /veh ISYNA1 (11749810_s_at) / RFU ACY1 (11761880_at) / Fold change /veh ACY1 (11761880_at) / RFU 11764098_at / Fold change /veh 11764098_at / RFU SAMD14 (11745864_x_at) / Fold change /veh SAMD14 (11745864_x_at) / RFU NPB (11741838_a_at) / Fold change /veh NPB (11741838_a_at) / RFU TMPRSS6 (11731388_a_at) / Fold change /veh TMPRSS6 (11731388_a_at) / RFU KRTAP10-2 (11738614_at) / Fold change /veh KRTAP10-2 (11738614_at) / RFU ARHGAP8 /// PRR5-ARHGAP8 (11727945_x_at) / Fold change /veh ARHGAP8 /// PRR5-ARHGAP8 (11727945_x_at) / RFU KRTAP5-7 /// NADSYN1 (11734609_at) / Fold change /veh KRTAP5-7 /// NADSYN1 (11734609_at) / RFU RASL12 (11751679_a_at) / Fold change /veh RASL12 (11751679_a_at) / RFU CDKN2B (11736163_a_at) / Fold change /veh CDKN2B (11736163_a_at) / RFU PRF1 (11729649_at) / Fold change /veh PRF1 (11729649_at) / RFU, ZNF638 /// ZNF638-IT1 / Fold change vs veh, ZNF638 /// ZNF638-IT1 / RFU, PANK3 / Fold change vs veh, PANK3 / RFU, SH3YL1 / Fold change vs veh, SH3YL1 / RFU, ZEB2 / Fold change vs veh, ZEB2 / RFU, NRIP1 / Fold change vs veh, NRIP1 / RFU, PTTG1IP / Fold change vs veh, PTTG1IP / RFU, CAPN2 / Fold change vs veh, CAPN2 / RFU, MED14 / Fold change vs veh, MED14 / RFU, SNORA58 / Fold change vs veh, SNORA58 / RFU, C1orf63 / Fold change vs veh, C1orf63 / RFU, LRRFIP1 / Fold change vs veh, LRRFIP1 / RFU, NDUFAF7 / Fold change vs veh, NDUFAF7 / RFU, SLC12A2 / Fold change vs veh, SLC12A2 / RFU, IBTK / Fold change vs veh, IBTK / RFU, ESF1 / Fold change vs veh, ESF1 / Fold change vs veh, TMEM50B / RFU, TAOK1 / Fold change vs veh, TAOK1 / RFU, ACBD3 / Fold change vs veh, ACBD3 / RFU, TMA16 / Fold change vs veh, TMA16 / RFU, RWDD3 / Fold change vs veh, RWDD3 / RFU, BCAT1 / Fold change vs veh, BCAT1 / RFU, EDEM3 / Fold change vs veh, EDEM3 / RFU, TMEM33 / Fold change vs veh, TMEM33 / RFU, WDR75 / Fold change vs veh, WDR75 / RFU, AHCTF1 / Fold change vs veh, AHCTF1 / RFU, TFRC / Fold change vs veh, TFRC / RFU, ZDHHC17 / Fold change vs veh, ZDHHC17 / RFU, NOM1 / Fold change vs veh, NOM1 / RFU, ARL8B / Fold change vs veh, ARL8B / RFU, ZBTB11 / Fold change vs veh, ZBTB11 / RFU, TAMM41 / Fold change vs veh, TAMM41 / RFU, KIAA1704 /// LOC100996395 / Fold change vs veh, KIAA1704 /// LOC100996395 / RFU, ING1 / Fold change vs veh, ING1 / RFU, TRMT61B / Fold change vs veh, TRMT61B / RFU, FUBP3 / Fold change vs veh, FUBP3 / RFU, TP53 / Fold change vs veh, TP53 / RFU, TNKS2 / Fold change vs veh, TNKS2 / RFU, ZFP14 / Fold change vs veh, ZFP14 / RFU, ACTR2 / Fold change vs veh, ACTR2 / RFU, PPP3R1 / Fold change vs veh, PPP3R1 / RFU, PIK3R1 / Fold change vs veh, PIK3R1 / RFU, HNRNPA1 / Fold change vs veh, HNRNPA1 / RFU, RNF170 / Fold change vs veh, RNF170 / RFU, ZNF28 / Fold change vs veh, ZNF28 / RFU, RNGTT / Fold change vs veh, RNGTT / RFU, OGT / Fold change vs veh, OGT / RFU, BRD1 / Fold change vs veh, BRD1 / RFU, MARS / Fold change vs veh, MARS / RFU, ZNF655 / Fold change vs veh, ZNF655 / RFU, FAHD1 / Fold change vs veh, FAHD1 / RFU, BDP1 / Fold change vs veh, BDP1 / RFU, LRRCC1 / Fold change vs veh, LRRCC1 / RFU, ARID1A / Fold change vs veh, ARID1A / RFU, ZNF146 / Fold change vs veh, ZNF146 / RFU, ZNF330 / Fold change vs veh, ZNF330 / RFU, GPN3 / Fold change vs veh, GPN3 / RFU, C9orf123 / Fold change vs veh, C9orf123 / RFU, N4BP2L2 / Fold change vs veh, N4BP2L2 / RFU, ARFIP1 / Fold change vs veh, ARFIP1 / RFU, FAM179B / Fold change vs veh, FAM179B / RFU, BCL10 / Fold change vs veh, BCL10 / RFU, UHRF1BP1L / Fold change vs veh, UHRF1BP1L / RFU, BET1 / Fold change vs veh, BET1 / RFU, CNOT2 / Fold change vs veh, CNOT2 / RFU, ZNF268 / Fold change vs veh, ZNF268 / Fold change vs veh, ZNF507 / RFU, DGCR2 / Fold change vs veh, DGCR2 / RFU, WDSUB1 / Fold change vs veh, WDSUB1 / Fold change vs veh, HSP90B1 /// MIR3652 / RFU, ADSS / Fold change vs veh, ADSS / RFU, GK / Fold change vs veh, GK / RFU, ZNF148 / Fold change vs veh, ZNF148 / RFU, TAF9 / Fold change vs veh, TAF9 / RFU, SLC1A5 / Fold change vs veh, SLC1A5 / RFU, SLMO2 / Fold change vs veh, SLMO2 / RFU, ABCC4 / Fold change vs veh, ABCC4 / RFU, LOC101060439 /// RAP1B / Fold change vs veh, LOC101060439 /// RAP1B / RFU, RFX7 / Fold change vs veh, RFX7 / RFU, GTPBP10 / Fold change vs veh, GTPBP10 / RFU, CNEP1R1 / Fold change vs veh, CNEP1R1 / RFU, BIVM-ERCC5 /// ERCC5 / Fold change vs veh, BIVM-ERCC5 /// ERCC5 / RFU, ILF3 / Fold change vs veh, ILF3 / RFU 11762660_at / Fold change /veh 11762660_at / RFU VCAN (11757783_s_at) / Fold change /veh VCAN (11757783_s_at) / RFU DDX43 (11728927_at) / Fold change /veh DDX43 (11728927_at) / RFU KRT8 (11758188_x_at) / Fold change /veh KRT8 (11758188_x_at) / RFU NKD1 (11759106_at) / Fold change /veh NKD1 (11759106_at) / RFU SRD5A1 (11742802_a_at) / Fold change /veh SRD5A1 (11742802_a_at) / RFU TPSAB1 /// TPSB2 (11721975_s_at) / Fold change /veh TPSAB1 /// TPSB2 (11721975_s_at) / RFU GSTM3 (11746129_a_at) / Fold change /veh GSTM3 (11746129_a_at) / RFU IL23R (11737362_x_at) / Fold change /veh IL23R (11737362_x_at) / RFU TMEM51 (11727254_a_at) / Fold change /veh TMEM51 (11727254_a_at) / RFU PIWIL2 (11732686_x_at) / Fold change /veh PIWIL2 (11732686_x_at) / RFU ORM1 (11744905_x_at) / Fold change /veh ORM1 (11744905_x_at) / RFU CCDC152 (11743942_at) / Fold change /veh CCDC152 (11743942_at) / RFU ECM1 (11717891_a_at) / Fold change /veh ECM1 (11717891_a_at) / RFU IL23R (11748794_a_at) / Fold change /veh IL23R (11748794_a_at) / RFU TNFAIP8L3 (11732012_x_at) / Fold change /veh TNFAIP8L3 (11732012_x_at) / RFU MBOAT4 (11741988_at) / Fold change /veh MBOAT4 (11741988_at) / RFU 11764193_at / Fold change /veh 11764193_at / RFU TMEM53 (11763286_at) / Fold change /veh TMEM53 (11763286_at) / RFU MAGEB2 (11727129_at) / Fold change /veh MAGEB2 (11727129_at) / RFU TMEM200A (11744735_a_at) / Fold change /veh TMEM200A (11744735_a_at) / RFU CCDC152 (11751479_a_at) / Fold change /veh CCDC152 (11751479_a_at) / RFU FAM211A (11726209_a_at) / Fold change /veh FAM211A (11726209_a_at) / RFU RGS16 (11746705_a_at) / Fold change /veh RGS16 (11746705_a_at) / RFU VCAN (11755009_s_at) / Fold change /veh VCAN (11755009_s_at) / RFU RHOB (11743442_s_at) / Fold change /veh RHOB (11743442_s_at) / RFU RGS16 (11720943_a_at) / Fold change /veh RGS16 (11720943_a_at) / RFU RGS16 (11720944_at) / Fold change /veh RGS16 (11720944_at) / RFU, VPS4B / Fold change vs veh, VPS4B / RFU, CREB1 / Fold change vs veh, CREB1 / RFU, DNAJC13 / Fold change vs veh, DNAJC13 / RFU, GNAQ / Fold change vs veh, GNAQ / RFU, CDK5R1 / Fold change vs veh, CDK5R1 / RFU, ZRANB3 / Fold change vs veh, ZRANB3 / RFU, CUL4A / Fold change vs veh, CUL4A / RFU, CCNY / Fold change vs veh, CCNY / RFU, UFL1 / Fold change vs veh, UFL1 / RFU, COG3 / Fold change vs veh, COG3 / RFU, DIAPH2 / Fold change vs veh, DIAPH2 / RFU, SKA2 / Fold change vs veh, SKA2 / RFU, AFF3 / Fold change vs veh, AFF3 / RFU, LMF1 / Fold change vs veh, LMF1 / RFU, IPO11 / Fold change vs veh, IPO11 / RFU, DFFB / Fold change vs veh, DFFB / RFU, FOXP1 / Fold change vs veh, FOXP1 / RFU, CARD8 / Fold change vs veh, CARD8 / RFU, STRN3 / Fold change vs veh, STRN3 / RFU, ADK / Fold change vs veh, ADK / RFU, RASSF2 / Fold change vs veh, RASSF2 / RFU, WIPF1 / Fold change vs veh, WIPF1 / RFU, LARP1B / Fold change vs veh, LARP1B / RFU, RASA1 / Fold change vs veh, RASA1 / RFU, RB1 / Fold change vs veh, RB1 / RFU, PPFIA1 / Fold change vs veh, PPFIA1 / RFU, MAT2A / Fold change vs veh, MAT2A / RFU, CCT5 / Fold change vs veh, CCT5 / RFU, WDR92 / Fold change vs veh, WDR92 / RFU, CUX1 / Fold change vs veh, CUX1 / RFU, TTC7A / Fold change vs veh, TTC7A / RFU, TMEM135 / Fold change vs veh, TMEM135 / RFU, DEPTOR / Fold change vs veh, DEPTOR / RFU, CPM / Fold change vs veh, CPM / RFU, DNAJB6 / Fold change vs veh, DNAJB6 / RFU, CACNA2D3 / Fold change vs veh, CACNA2D3 / RFU, DTX4 / Fold change vs veh, DTX4 / RFU, TFCP2 / Fold change vs veh, TFCP2 / RFU, GMCL1 /// GMCL1P1 / Fold change vs veh, GMCL1 /// GMCL1P1 / RFU, AEBP2 / Fold change vs veh, AEBP2 / RFU, SNHG1 /// SNORD22 /// SNORD25 /// SNORD26 /// SNORD27 /// SNORD28 /// SNORD29 /// SNORD31 / Fold change vs veh, SNHG1 /// SNORD22 /// SNORD25 /// SNORD26 /// SNORD27 /// SNORD28 /// SNORD29 /// SNORD31 / Fold change (Aza/veh), C12orf56 (ProbeSet 11735607_a_at) / Fold change (ACY-1035/veh), C12orf56 (ProbeSet 11735607_a_at) / Fold change (Aza/veh), FGFR1OP (ProbeSet 11751329_s_at) / Fold change (ACY-1035/veh), FGFR1OP (ProbeSet 11751329_s_at) / Fold change (Aza/veh), VPS36 (ProbeSet 11739960_a_at) / Fold change (ACY-1035/veh), VPS36 (ProbeSet 11739960_a_at) / RFU SYPL1 (11715823_x_at) / Fold change /veh SYPL1 (11715823_x_at) / RFU IGFBP7 (11715501_s_at) / Fold change /veh IGFBP7 (11715501_s_at) / RFU REEP3 (11722064_at) / Fold change /veh REEP3 (11722064_at) / RFU IGLL1 (11728026_x_at) / Fold change /veh IGLL1 (11728026_x_at): dose or concentration left out as unconfirmed
Details: ProbeSet 11748335_a_at; LIST B

Structure (SMILES): Nc1ncn([C@@H]2O[C@H](CO)[C@@H](O)[C@H]2O)c(=O)n1 [azacitidine]
- Fold change vs veh, SLMO2: 0.87
